Usually IC50 stands for the concentration at which inhibition is half-maximal.

These results are taken from patent US20160046618A1, “Cyclopropyl Fused Thiazin-2-Amine Compounds as Beta-Secretase Inhibitors and Methods of Use” (AMGEN INC., priority 2014, published 2016).

One assay has as its target Recombinant Cat D (Homo sapiens (Human), UniProt P07339). In words: In vitro enzymatic Cathepsin D (Cat D) FRET assay. The class given is biochemical. To be noted: read-out: IC50 IP (μM) CatD. The gist of the method:
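Human Cat D expressed in CHO cells was incubated for one hour in 0.05 M citrate pH 3.5, 5 mM CHAPS, 10% DMSO final, with 20 nM quenched FRET peptide substrate. Reactions were stopped with Tris buffer raising pH to neutrality. Cleavage was read as fluorescence at excitation 500 nm, emission 580 nm.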

A further assay concerns the target human recombinant BACE2 (Homo sapiens (Human), UniProt Q9Y5Z0). In words: In vitro enzymatic BACE2 FRET assay. It counts as biochemical. Conditions: read-out: IC50 IP (μM) BACE2 enzyme. In a few lines:
(§1)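 Reactions were initiated by adding 50 nM of a peptide carrying fluorophore and quencher on opposite sides of the cleavage site and ran for one hour. Tris buffer then brought the pH to neutrality, ending the reaction, and fluorescence was measured (488 nm excitation, 590 nm emission).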

In assay [1] the test system is Aβ40 in conditioned medium of cells stably expressing Amyloid Precursor Protein (APP). In words: In vitro BACE-1 cell-based assay (Aβ40 sandwich ELISA). To be noted: read-out: IC50 IP (μM) BACE1 cell. The gist of the method:
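Aβ40 in supernatants measured by time-resolved fluorescence sandwich ELISA, with pAb40 as capture and biotin-6E10 as detector antibody, each incubated at 4 °C.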
(ELISA stands for enzyme-linked immunosorbent assay.)

A further assay concerns the target human recombinant BACE1 (Homo sapiens (Human), UniProt P56817). In words: In vitro enzymatic BACE1 FRET assay. It counts as biochemical. Conditions: read-out: IC50 IP (μM) BACE1 enzyme. In a few lines: as §1

Recombinant Cat D, sequence (P07339 65-412): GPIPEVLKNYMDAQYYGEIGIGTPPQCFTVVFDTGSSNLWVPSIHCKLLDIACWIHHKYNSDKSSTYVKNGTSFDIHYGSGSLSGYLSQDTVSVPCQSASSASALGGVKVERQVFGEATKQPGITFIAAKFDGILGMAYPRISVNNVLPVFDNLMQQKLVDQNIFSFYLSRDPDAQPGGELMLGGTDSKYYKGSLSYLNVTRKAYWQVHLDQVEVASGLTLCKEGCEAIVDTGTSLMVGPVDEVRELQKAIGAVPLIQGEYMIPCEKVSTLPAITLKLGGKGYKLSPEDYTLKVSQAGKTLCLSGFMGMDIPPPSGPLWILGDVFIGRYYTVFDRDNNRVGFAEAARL
human recombinant BACE2, sequence (Q9Y5Z0 63-518): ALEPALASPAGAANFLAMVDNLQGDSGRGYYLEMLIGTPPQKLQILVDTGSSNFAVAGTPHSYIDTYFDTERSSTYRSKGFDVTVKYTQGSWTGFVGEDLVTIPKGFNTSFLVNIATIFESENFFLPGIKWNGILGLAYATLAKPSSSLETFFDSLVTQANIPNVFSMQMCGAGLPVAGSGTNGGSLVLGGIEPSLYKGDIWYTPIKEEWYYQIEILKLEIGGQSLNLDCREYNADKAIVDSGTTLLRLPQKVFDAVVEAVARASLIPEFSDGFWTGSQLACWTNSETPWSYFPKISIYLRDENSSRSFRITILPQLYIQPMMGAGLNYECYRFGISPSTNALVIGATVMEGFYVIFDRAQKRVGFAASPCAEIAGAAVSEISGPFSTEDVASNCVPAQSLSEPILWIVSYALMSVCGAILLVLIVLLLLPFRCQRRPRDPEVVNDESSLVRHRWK
human recombinant BACE1, sequence (P56817 46-501): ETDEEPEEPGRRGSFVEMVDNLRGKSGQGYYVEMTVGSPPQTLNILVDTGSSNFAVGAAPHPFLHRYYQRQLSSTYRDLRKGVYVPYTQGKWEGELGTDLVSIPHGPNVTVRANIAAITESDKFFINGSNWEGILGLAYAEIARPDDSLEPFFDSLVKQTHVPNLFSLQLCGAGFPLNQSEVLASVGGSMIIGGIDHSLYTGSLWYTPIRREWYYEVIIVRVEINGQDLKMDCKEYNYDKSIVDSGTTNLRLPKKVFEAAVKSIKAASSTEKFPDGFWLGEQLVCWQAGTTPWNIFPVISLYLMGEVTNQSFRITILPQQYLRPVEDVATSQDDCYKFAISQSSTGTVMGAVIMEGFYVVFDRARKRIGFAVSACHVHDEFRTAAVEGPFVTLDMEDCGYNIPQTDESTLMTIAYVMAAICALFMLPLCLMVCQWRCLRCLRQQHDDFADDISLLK

For `Cc1nc(OCC(F)(F)F)cnc1C(=O)Nc1cc(F)c(F)c([C@@]2(C)N=C(N)S[C@@]3(C(F)F)C[C@@H]23)c1` [Example 615, N-(3-((1S,5S,6S)-3-amino-1-(difluoromethyl)-5-methyl-2-thia-4-azabicyclo[4.1.0]hept-3-en-5-yl)-4,5-difluorophenyl)-3-methyl-5-(2,2,2-trifluoroethoxy)-2-pyrazinecarboxamide], the IC50 on Recombinant Cat D turned out to be 102 µM; on human recombinant BACE2, 0.117 µM; in assay [1], 0.0788 µM; at human recombinant BACE1, 0.00273 µM.
For `C#C[C@H](C)Oc1cnc(C(=O)Nc2cc(F)c(F)c([C@@]3(C)N=C(N)S[C@@]4(C(F)F)C[C@@H]34)c2)c(C)n1` [Example 617, N-(3-((1S,5S,6S)-3-amino-1-(difluoromethyl)-5-methyl-2-thia-4-azabicyclo[4.1.0]hept-3-en-5-yl)-4,5-difluorophenyl)-3-methyl-5-(((1S)-1-methyl-2-propyn-1-yl)oxy)-2-pyrazinecarboxamide], the IC50 at Recombinant Cat D is above 400 µM; at human recombinant BACE2 it was 0.158 µM; in assay [1], 0.0652 µM; on human recombinant BACE1 it was 0.00357 µM.
On the same counts, the results for `COC[C@]12C[C@H]1[C@@](C)(c1cc(NC(=O)c3ncc(OCC(F)(F)F)nc3C)cc(F)c1F)N=C(N)S2` [Example 618, N-(3-((1S,5S,6S)-3-amino-1-(methoxymethyl)-5-methyl-2-thia-4-azabicyclo[4.1.0]hept-3-en-5-yl)-4,5-difluorophenyl)-3-methyl-5-(2,2,2-trifluoroethoxy)-2-pyrazinecarboxamide] are 1020 µM, 0.0161 µM, 0.0557 µM and 0.00606 µM.
The corresponding values for `C#C[C@H](C)Oc1cnc(C(=O)Nc2ccc(F)c([C@@]3(C)N=C(N)S[C@@]4(C(F)F)C[C@@H]34)c2)c(C)n1` [Example 619, N-(3-((1S,5S,6S)-3-amino-1-(difluoromethyl)-5-methyl-2-thia-4-azabicyclo[4.1.0]hept-3-en-5-yl)-4-fluorophenyl)-3-methyl-5-(((1S)-1-methyl-2-propyn-1-yl)oxy)-2-pyrazinecarboxamide] are 655 µM, 0.175 µM, 0.0352 µM and 0.00439 µM.
For the compound `COC[C@]12C[C@H]1[C@@](C)(c1cc(NC(=O)c3ncc(OCC(F)(F)F)nc3C)ccc1F)N=C(N)S2` [Example 620, N-(3-((1S,5S,6S)-3-amino-1-(methoxymethyl)-5-methyl-2-thia-4-azabicyclo[4.1.0]hept-3-en-5-yl)-4-fluorophenyl)-3-methyl-5-(2,2,2-trifluoroethoxy)-2-pyrazinecarboxamide], the IC50 at Recombinant Cat D was above 400 µM; at human recombinant BACE2 it was 0.245 µM; in assay [1], 0.0437 µM; on human recombinant BACE1, 0.00832 µM.
On the same counts, the results for `C#C[C@H](C)Oc1cnc(C(=O)Nc2ccc(F)c([C@@]3(C)N=C(N)S[C@@]4(COC)C[C@H]43)c2)c(C)n1` [Example 621, N-(3-((1S,5S,6S)-3-amino-1-(methoxymethyl)-5-methyl-2-thia-4-azabicyclo[4.1.0]hept-3-en-5-yl)-4-fluorophenyl)-3-methyl-5-(((1S)-1-methyl-2-propyn-1-yl)oxy)-2-pyrazinecarboxamide] are 710 µM, 0.148 µM, 0.0197 µM and 0.0113 µM.
The corresponding values for `Cc1nc(OCC(F)(F)F)cnc1C(=O)Nc1ccc(F)c([C@@]2(C)N=C(N)S[C@@]3(C(F)F)C[C@@H]23)c1` [Example 623, N-(3-((1S,5S,6S)-3-amino-1-(difluoromethyl)-5-methyl-2-thia-4-azabicyclo[4.1.0]hept-3-en-5-yl)-4-fluorophenyl)-3-methyl-5-(2,2,2-trifluoroethoxy)-2-pyrazinecarboxamide] are 641 µM, 0.0485 µM, 0.0671 µM and 0.00575 µM.
For the compound `COc1ncc(NC(=O)c2ccc(Cl)cn2)cc1[C@@]1(C)N=C(N)S[C@@]2(CF)C[C@H]21` [Example 624, N-(5-((1S,5S,6S)-3-amino-1-(fluoromethyl)-5-methyl-2-thia-4-azabicyclo[4.1.0]hept-3-en-5-yl)-6-methoxy-3-pyridinyl)-5-chloro-2-pyridinecarboxamide], the IC50 at Recombinant Cat D is above 400 µM; on human recombinant BACE2 it was 0.00394 µM; in assay [1], 0.0435 µM; at human recombinant BACE1 it was 0.0298 µM.
Turning to `C#CCOc1cnc2c(Nc3cnc(OC)c([C@@]4(C)N=C(N)S[C@@]5(CF)C[C@H]54)c3)ncnc2c1` [Example 625, N-(5-((1S,5S,6S)-3-amino-1-(fluoromethyl)-5-methyl-2-thia-4-azabicyclo[4.1.0]hept-3-en-5-yl)-6-methoxy-3-pyridinyl)-7-(2-propyn-1-yloxy)pyrido[3,2-d]pyrimidin-4-amine], the IC50 came out at 730 µM at Recombinant Cat D, 0.401 µM at human recombinant BACE2, 0.014 µM in assay [1] and 0.0309 µM on human recombinant BACE1.
As to `COc1ncc(Nc2nccc3nc(OCc4ncco4)cnc23)cc1[C@@]1(C)N=C(N)S[C@@]2(CF)C[C@H]21` [Example 626, N-(5-((1S,5S,6S)-3-amino-1-(fluoromethyl)-5-methyl-2-thia-4-azabicyclo[4.1.0]hept-3-en-5-yl)-6-methoxy-3-pyridinyl)-2-(1,3-oxazol-2-ylmethoxy)pyrido[3,4-b]pyrazin-5-amine], the IC50 on Recombinant Cat D was found to be 1080 µM; on human recombinant BACE2, 0.2 µM; in assay [1], 0.00509 µM; at human recombinant BACE1 it was 0.0164 µM.
The corresponding values for `COC[C@]12C[C@H]1[C@@](C)(c1cc(Nc3nccc4cc(OC)cnc34)cc(F)c1F)N=C(N)S2` [Example 629, N-(3-((1S,5S,6S)-3-amino-1-(methoxymethyl)-5-methyl-2-thia-4-azabicyclo[4.1.0]hept-3-en-5-yl)-4,5-difluorophenyl)-3-methoxy-1,7-naphthyridin-8-amine] are 2880 µM, 0.0582 µM, 0.0205 µM and 0.0365 µM.
On the same counts, the results for `C#CCOc1cnc2c(Nc3cc(F)c(F)c([C@@]4(C)N=C(N)S[C@@]5(S(C)(=O)=O)C[C@H]54)c3)nccc2n1` [Example 630, N-(3-((1R,5S,6S)-3-amino-5-methyl-1-(methylsulfonyl)-2-thia-4-azabicyclo[4.1.0]hept-3-en-5-yl)-4,5-difluorophenyl)-2-(2-propyn-1-yloxy)pyrido[3,4-b]pyrazin-5-amine] are 74.9 µM, 0.00547 µM, 0.00528 µM and 0.000443 µM.
The corresponding values for `C#CCOc1cnc2c(Nc3ccc(F)c([C@@]4(C)N=C(N)S[C@@]5(C(=O)N6CCCC6)C[C@H]54)c3)nccc2n1` [Example 632, N-(3-((1S,5S,6S)-3-amino-5-methyl-1-(1-pyrrolidinylcarbonyl)-2-thia-4-azabicyclo[4.1.0]hept-3-en-5-yl)-4-fluorophenyl)-2-(2-propyn-1-yloxy)pyrido[3,4-b]pyrazin-5-amine] are 961 µM, 0.00302 µM, 0.000535 µM and 0.000715 µM.
Take `C#CCOc1cnc(C(=O)Nc2ccc(F)c([C@@]3(C)N=C(N)S[C@@]4(C(=O)N5CCCC5)C[C@H]43)c2)cn1` [Example 633, N-(3-((1S,55,6S)-3-amino-5-methyl-1-(1-pyrrolidinylcarbonyl)-2-thia-4-azabicyclo[4.1.0]hept-3-en-5-yl)-4-fluorophenyl)-5-(2-propyn-1-yloxy)-2-pyrazinecarboxamide]: the IC50 is 67.5 µM on Recombinant Cat D, 0.00165 µM on human recombinant BACE2, 0.000224 µM in assay [1] and 0.00036 µM at human recombinant BACE1.
In the case of `C[C@]1(c2cc(NC(=O)c3cnc(OCC(F)(F)F)cn3)ccc2F)N=C(N)S[C@@]2(C(=O)N3CCCC3)C[C@H]21` [Example 634, N-(3-((1S,5S,6S)-3-amino-5-methyl-1-(1-pyrrolidinylcarbonyl)-2-thia-4-azabicyclo[4.1.0]hept-3-en-5-yl)-4-fluorophenyl)-5-(2,2,2-trifluoroethoxy)-2-pyrazinecarboxamide], the IC50 on Recombinant Cat D stood at 660 µM; on human recombinant BACE2 it was 0.00951 µM; in assay [1], 0.000616 µM; at human recombinant BACE1, 0.000758 µM.
On the same counts, the results for `COCCOc1cnc2c(Nc3ccc(F)c([C@@]4(CF)N=C(N)S[C@@]5(CF)C[C@H]54)c3)nccc2n1` [Example 635, N-(3-((1S,5S,6S)-3-amino-1,5-bis(fluoromethyl)-2-thia-4-azabicyclo[4.1.0]hept-3-en-5-yl)-4-fluorophenyl)-2-(2-methoxyethoxy)pyrido[3,4-b]pyrazin-5-amine] are above 400 µM, 0.192 µM, 0.0208 µM and 0.00832 µM.
On the same counts, the results for `C[C@]1(c2cc(Nc3ncnc4cc(F)cnc34)cc(F)c2F)N=C(N)S[C@H]2C[C@H]21` [Example 636, (1S,5S,6S)-5-(2,3-difluoro-5-((7-fluoropyrido[3,2-d]pyrimidin-4-yl)amino)phenyl)-5-methyl-2-thia-4-azabicyclo[4.1.0]hept-3-en-3-amine] are 996 µM, 0.0298 µM, 0.411 µM and 0.0918 µM.
